According to patent US11274129B2, “Methods for protein tyrosine phosphorylation profiling with variant SH2 domains” (priority 2016, dated 2022):

What was measured:
[1] = biological target: ShcA-pTyr^239 peptide DHQpYYNDFPG; conditions: peptide ShcA-pTyr^239 DHQpYYNDFPG; read-out: equilibrium dissociation constant (Kd); cited from earlier work
[2] = test system: mixture of 54 different pTyr-including peptides derived from 54 TK activation loops; assay: Capture of pTyr-including peptides from a mixture of TK activation loop peptides, scheduled PRM; assay type: binding; conditions: for number of the 54 pTyr-including peptides captured / detected by PRM: 10 nmole SH2 domain, 10 pmole each peptide
Protocol: Equal molar amounts (10 nmole) of the wild-type (wt) human Src SH2 domain and the DM and TrM human Src SH2 Superbinders (SEQ ID NO: 14 and 5, respectively) expressed with His6 and GST tags were used to capture pTyr-including peptides from a mixture of 54 different pTyr-including peptides (10 pmole each) derived from 54 TK activation loops. The isolated peptides were identified by PRM and quantified based on the corresponding MS peak area. 1.8% of the eluted peptides were injected into a Q-Exactive (Thermo Fisher) preceded with a nano-LC system.
Shown are the amounts of pTyr-including peptides captured, based on the corresponding peak area of PRM signal, by each of the parent human Src SH2 domain and the DM and TrM human Src SH2 Superbinders.

[3] = biological target: EGFR-pTyr^978 peptide PQRpYLVIQGD; conditions: peptide EGFR-pTyr^978 PQRpYLVIQGD; read-out: equilibrium dissociation constant (Kd); cited from earlier work
[4] = biological target: EGFR-pTyr^1110 peptide NPVpYHNQPLN; conditions: peptide EGFR-pTyr^1110 NPVpYHNQPLN; read-out: equilibrium dissociation constant (Kd); cited from earlier work
[5] = biological target: Designed peptide GGpYGG; conditions: read-out: equilibrium dissociation constant (Kd); cited from earlier work
[6] = biological target: VEGFR1-pTyr^1213 peptide DVRpYVNAAKF; conditions: peptide VEGFR1-pTyr^1213 DVRpYVNAAKF; read-out: equilibrium dissociation constant (Kd); cited from earlier work
[7] = biological target: ShcA-pTyr^317 peptide DPSpYVNVQNL; conditions: peptide ShcA-pTyr^317 DPSpYVNVQNL; read-out: equilibrium dissociation constant (Kd); cited from earlier work
[8] = biological target: RSKL-pTyr^423 peptide YQHpYDLDLKD; conditions: peptide RSKL-pTyr^423 YQHpYDLDLKD; read-out: equilibrium dissociation constant (Kd); cited from earlier work
[9] = biological target: MidT-pTyr^324 peptide EPQpYEEIPIYL; conditions: peptide MidT-pTyr^324 EPQpYEEIPIYL; read-out: equilibrium dissociation constant (Kd); cited from earlier work
[10] = BLK (pTyr389) IIDSEpYTAQEGAK, fragment ion b2
[11] = BMX (pTyr566) YVLDDQpYVSSVGTK, fragment ion b2
[12] = BTK (pTyr551) YVLDDEpYTSSVGSK, fragment ion b2
[13] = DDR1 (pTyr796/797) NLYAGDpYpYR, fragment ion b2
[14] = DDR2 (pTyr740/741) NLYSGDpYpYR, fragment ion y6
[15] = EPHA1 (pTyr781) LLDDFDGTpYETQGGK, fragment ion y9
[16] = EPHA2 (pTyr772) VLEDDPEATpYTTSGGK, fragment ion y11
[17] = EPHA3 (pTyr779) VLEDDPEAApYTTR, fragment ion y8
[18] = EPHA6 (pTyr830) VLEDDPEAApYTTTGGK, fragment ion b2
[19] = EPHA8 (pTyr793) VLEDDPDAApYTTTGGK, fragment ion y11
[20] = EPHB1 (pTyr778) YLQDDTSDPTpYTSSLGGK, fragment ion y10
[21] = EPHB2 (pTyr780) FLEDDTSDPTpYTSALGGK, fragment ion Y3
[22] = EPHB3 (pTyr792) FLEDDPSDPTpYTSSLGGK, fragment ion y10
[23] = EPHB4 (pTyr774) FLEENSSDPTpYTSSLGGK, fragment ion y10
[24] = ERBB2 (pTyr877) LLDIDETEpYHADGGK, fragment ion b3
[25] = ERBB3 (pTyr866) QLLpYSEAK, fragment ion y2
[26] = FER (pTyr714) QEDGGVpYSSSGLK, fragment ion y7
[27] = FES (pTyr713) EEADGVpYAASGGLR, fragment ion y8
[28] = FGFR1 (pTyr653/654) DIHHIDpYpYK, fragment ion b6
[29] = FGFR2 (pTyr656/657) DINNIDpYpYK, fragment ion y4
[30] = FGFR3 (pTyr647/648) DVHNLDpYpYK, fragment ion b3
[31] = FGFR4 (pTyr642/643) GVHHIDpYpYK, fragment ion b3
[32] = FRK (pTyr387) VDNEDIpYESR, fragment ion y6
[33] = GSK3 (pTyr279/216) GEPNVSpYICSR, fragment ion y6
[34] = HCK (pTyr411) VIEDNEpYTAR, fragment ion b2
[35] = INSRR (pTyr1145/1146) DVYETDpYpYR, fragment ion y5
[36] = ITK (pTyr512) FVLDDQpYTSSTGTK, fragment ion y11
[37] = JAK1 (pTyr1034/1035) EpYpYTVK, fragment ion y2
[38] = JAK2 (pTyr221) IQDpYHILTR, fragment ion Y3
[39] = JAK3 (pTyr980/981) DpYpYVVR, fragment ion y2
[40] = KIT (pTyr823) NDSNpYVVK, fragment ion b2
[41] = LMTK2 (pTyr295) EDpYIETDDK, fragment ion b2
[42] = LMTK3 (pTyr296/297) EDpYpYLTPER, fragment ion y3
[43] = MERTK (pTyr753/754) IYSGDpYpYR, fragment ion b2
[44] = MET (pTyr1234/1235) EpYpYSVHNK, fragment ion y2
[45] = MUSK (pTyr755/756) NIYSADpYpYK, fragment ion y2
[46] = NTRK1 (pTyr680/681) DIYSTDpYpYR, fragment ion b2
[47] = NTRK2 (pTyr706/707) DVYSTDpYpYR, fragment ion y4
[48] = PGFRB (pTyr857) DSNpYISK, fragment ion y2
[49] = PTK7 (pTyr960/961) DVYNSEpYpYHFR, fragment ion b2
[50] = RET (pTyr905) DVYEEDSpYVK, fragment ion b2
[51] = RON (pTyr1238/1239) EpYpYSVQQHR, fragment ion y4
[52] = ROR1 (pTyr645/646) EIYSADpYpYR, fragment ion y6
[53] = ROR2 (pTyr645/646) EVYAADpYpYK, fragment ion y5
[54] = SRC (pTyr419) LIEDNEpYTAR, fragment ion b2
[55] = SRMS (pTyr380) DDIpYSPSSSSK, fragment ion y8
[56] = TEC (pTyr519) YVLDDQpYTSSSGAK, fragment ion b2
[57] = TIE1 (pTyr1007) GEEVpYVK, fragment ion b2
[58] = TIE2 (pTyr992) GQEVpYVK, fragment ion b2
[59] = TXK (pTyr420) YVLDDEpYVSSFGAK, fragment ion b2
[60] = TYK2 (pTyr1054/1055) AVPEGHEpYpYR, fragment ion y6
[61] = VGFR1 (pTyr1053) NPDpYVR, fragment ion y3
[62] = VGFR2 (pTyr1059) DPDpYVR, fragment ion Y3

## Wild type: wild-type (parent) human Src SH2 domain; SEQ ID NO: 4, His6/GST-tagged form SEQ ID NO: 10 [reference compound]
[1]
  Kd: 0.7 µM
[2]
  number of the 54 pTyr-including peptides captured / detected by PRM: 22
[2]; [10]
  PRM signal peak area: 0
[2]; [11]
  PRM signal peak area: 0
[2]; [12]
  PRM signal peak area: 4,214
[2]; [13]
  PRM signal peak area: 47,729
[2]; [14]
  PRM signal peak area: 15,251
[2]; [15]
  PRM signal peak area: 0
[2]; [16]
  PRM signal peak area: 0
[2]; [17]
  PRM signal peak area: 0
[2]; [18]
  PRM signal peak area: 2,742
[2]; [19]
  PRM signal peak area: 0
[2]; [20]
  PRM signal peak area: 0
[2]; [21]
  PRM signal peak area: 10,833
[2]; [22]
  PRM signal peak area: 0
[2]; [23]
  PRM signal peak area: 0
[2]; [24]
  PRM signal peak area: 0
[2]; [25]
  PRM signal peak area: 41,881
[2]; [26]
  PRM signal peak area: 0
[2]; [27]
  PRM signal peak area: 0
[2]; [28]
  PRM signal peak area: 28,495
[2]; [29]
  PRM signal peak area: 51,625
[2]; [30]
  PRM signal peak area: 103,678
[2]; [31]
  PRM signal peak area: 29,764
[2]; [32]
  PRM signal peak area: 0
[2]; [33]
  PRM signal peak area: 0
[2]; [34]
  PRM signal peak area: 0
[2]; [35]
  PRM signal peak area: 0
[2]; [36]
  PRM signal peak area: 0
[2]; [37]
  PRM signal peak area: 58,254
[2]; [38]
  PRM signal peak area: 0
[2]; [39]
  PRM signal peak area: 23,291
[2]; [40]
  PRM signal peak area: 0
[2]; [41]
  PRM signal peak area: 0
[2]; [42]
  PRM signal peak area: 29,887
[2]; [43]
  PRM signal peak area: 0
[2]; [44]
  PRM signal peak area: 26,824
[2]; [45]
  PRM signal peak area: 47,647
[2]; [46]
  PRM signal peak area: 21,736
[2]; [47]
  PRM signal peak area: 39,632
[2]; [48]
  PRM signal peak area: 0
[2]; [49]
  PRM signal peak area: 0
[2]; [50]
  PRM signal peak area: 0
[2]; [51]
  PRM signal peak area: 5,434
[2]; [52]
  PRM signal peak area: 32,356
[2]; [53]
  PRM signal peak area: 85,894
[2]; [54]
  PRM signal peak area: 0
[2]; [55]
  PRM signal peak area: 0
[2]; [56]
  PRM signal peak area: 0
[2]; [57]
  PRM signal peak area: 0
[2]; [58]
  PRM signal peak area: 0
[2]; [59]
  PRM signal peak area: 1,519
[2]; [60]
  PRM signal peak area: 11,551
[2]; [61]
  PRM signal peak area: 0
[2]; [62]
  PRM signal peak area: 0
[3]
  Kd: 3.7 µM
[4]
  Kd: 6.9 µM
[5]
  Kd: > 30 µM
[6]
  Kd: 6.5 µM
[7]
  Kd: 2.2 µM
[8]
  Kd: 3.9 µM
[9]
  Kd: 0.13 µM

## Thr8Val/Cys10Ala: double-mutant human Src SH2 domain
[1]
  Kd: 0.1 µM
[2]
  number of the 54 pTyr-including peptides captured / detected by PRM: 32
[2]; [10]
  PRM signal peak area: 0
[2]; [11]
  PRM signal peak area: 0
[2]; [12]
  PRM signal peak area: 18,246
[2]; [13]
  PRM signal peak area: 43,173
[2]; [14]
  PRM signal peak area: 16,232
[2]; [15]
  PRM signal peak area: 12,335
[2]; [16]
  PRM signal peak area: 4,858
[2]; [17]
  PRM signal peak area: 0
[2]; [18]
  PRM signal peak area: 51,066
[2]; [19]
  PRM signal peak area: 57,102
[2]; [20]
  PRM signal peak area: 0
[2]; [21]
  PRM signal peak area: 98,045
[2]; [22]
  PRM signal peak area: 14,654
[2]; [23]
  PRM signal peak area: 0
[2]; [24]
  PRM signal peak area: 4,642
[2]; [25]
  PRM signal peak area: 151,587
[2]; [26]
  PRM signal peak area: 0
[2]; [27]
  PRM signal peak area: 0
[2]; [28]
  PRM signal peak area: 28,967
[2]; [29]
  PRM signal peak area: 39,469
[2]; [30]
  PRM signal peak area: 64,641
[2]; [31]
  PRM signal peak area: 29,983
[2]; [32]
  PRM signal peak area: 0
[2]; [33]
  PRM signal peak area: 0
[2]; [34]
  PRM signal peak area: 0
[2]; [35]
  PRM signal peak area: 7,794
[2]; [36]
  PRM signal peak area: 0
[2]; [37]
  PRM signal peak area: 46,193
[2]; [38]
  PRM signal peak area: 39,232
[2]; [39]
  PRM signal peak area: 10,521
[2]; [40]
  PRM signal peak area: 0
[2]; [41]
  PRM signal peak area: 1,124
[2]; [42]
  PRM signal peak area: 78,610
[2]; [43]
  PRM signal peak area: 0
[2]; [44]
  PRM signal peak area: 70,811
[2]; [45]
  PRM signal peak area: 0
[2]; [46]
  PRM signal peak area: 30,204
[2]; [47]
  PRM signal peak area: 22,794
[2]; [48]
  PRM signal peak area: 0
[2]; [49]
  PRM signal peak area: 4,843
[2]; [50]
  PRM signal peak area: 0
[2]; [51]
  PRM signal peak area: 17,370
[2]; [52]
  PRM signal peak area: 27,661
[2]; [53]
  PRM signal peak area: 60,460
[2]; [54]
  PRM signal peak area: 0
[2]; [55]
  PRM signal peak area: 0
[2]; [56]
  PRM signal peak area: 4,818
[2]; [57]
  PRM signal peak area: 0
[2]; [58]
  PRM signal peak area: 0
[2]; [59]
  PRM signal peak area: 46,128
[2]; [60]
  PRM signal peak area: 9,679
[2]; [61]
  PRM signal peak area: 0
[2]; [62]
  PRM signal peak area: 0
[3]
  Kd: 0.39 µM
[4]
  Kd: 4.5 µM
[5]
  Kd: 25 µM
[6]
  Kd: 1.8 µM
[7]
  Kd: 0.39 µM
[8]
  Kd: 0.9 µM
[9]
  Kd: 0.027 µM
